The record followed here is patent US8178535B2, “Substituted sulfonamide compounds having bradykinin 1 receptor activity and use thereof as medicaments” (Gruenenthal GmbH, priority 2008, dated 2012).

The term inhibition denotes the change of the read-out against control, counted positive when it falls.

The target of experiment [1] is T1, human B1R receptor (hB1R) (Homo sapiens, UniProt P46663).
T1 construct: host or cells: CHO K1 cells
T1 sequence (P46663 1-353): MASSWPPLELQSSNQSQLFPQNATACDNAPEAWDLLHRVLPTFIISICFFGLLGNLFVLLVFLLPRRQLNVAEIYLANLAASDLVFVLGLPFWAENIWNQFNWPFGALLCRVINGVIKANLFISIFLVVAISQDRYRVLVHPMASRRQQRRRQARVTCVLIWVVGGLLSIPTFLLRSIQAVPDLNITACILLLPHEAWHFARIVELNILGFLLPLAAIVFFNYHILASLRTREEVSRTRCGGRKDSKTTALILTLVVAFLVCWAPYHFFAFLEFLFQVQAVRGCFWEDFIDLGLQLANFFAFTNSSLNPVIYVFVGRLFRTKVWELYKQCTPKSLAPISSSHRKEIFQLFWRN
Nature of the experiment: FLIPR Ca2+ assay (Fluo-4) on CHO K1 cells stably transfected with the human B1R gene. Type of experiment: cell-based. To be noted: CHO-K1; test substance 10 μM; agonist Lys-Des-Arg9-bradykinin 0.5 nM; % inhibition compared to the maximum achievable inhibition. The method, boiled down: (§1)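 CHO K1 cells stably expressing human or rat B1R, Fluo-4 loaded, read by FLIPR (Ex 488/Em 540, peak fluorescence). Compound at 10 μM gives % activation vs agonist. After 10 min, agonist added (human: Lys-Des-Arg9-bradykinin 0.5 nM; rat: Des-Arg9-bradykinin 100 nM); % inhibition relative to maximal achievable inhibition.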

Experiment [2] has as its target T2, B1R receptor of rats (rB1R) (Rattus norvegicus, UniProt P97583).
T2 construct: host or cells: CHO K1 cells
T2 sequence (P97583 1-337): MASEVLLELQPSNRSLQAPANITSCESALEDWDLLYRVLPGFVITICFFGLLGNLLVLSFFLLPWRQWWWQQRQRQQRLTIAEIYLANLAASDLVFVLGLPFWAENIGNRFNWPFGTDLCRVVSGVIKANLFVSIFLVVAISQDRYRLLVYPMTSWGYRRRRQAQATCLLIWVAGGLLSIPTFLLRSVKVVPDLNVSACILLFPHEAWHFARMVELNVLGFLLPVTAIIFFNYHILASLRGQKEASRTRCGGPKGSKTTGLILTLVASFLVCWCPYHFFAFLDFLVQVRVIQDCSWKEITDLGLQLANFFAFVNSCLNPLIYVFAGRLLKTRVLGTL
Nature of the experiment: FLIPR Ca2+ assay (Fluo-4) on CHO K1 cells stably transfected with the B1R gene of rats. To be noted: CHO-K1; test substance 10 μM; agonist Des-Arg9-bradykinin 100 nM; % inhibition compared to the maximum achievable inhibition. Type of experiment: cell-based. The method, boiled down: as §1

With `Cc1cc(C)c(S(=O)(=O)N2CCCCC2COCC(=O)N2CCn3cccc3C2C(C)(C)C)c(C)c1` (stereo not drawn) [(33), 1-(1-tert-butyl-3,4-dihydropyrrolo[1,2-a]pyrazin-2(1H)-yl)-2-((1-(mesitylsulfonyl)piperidin-2-yl)methoxy)ethanone], the inhibition at 10 µM in experiment [1] was found to be 98%; in experiment [2], 100%.

Consider `COc1cc(C)c(S(=O)(=O)N2CCCCC2CCCC(=O)N2CCn3c(ccc3-c3ccncc3)C2)c(C)c1` (stereo not drawn) [(110), 4-(1-(4-Methoxy-2,6-dimethylphenylsulfonyl)piperidin-2-yl)-1-(6-(pyridin-4-yl)-3,4-dihydropyrrolo[1,2-a]pyrazin-2(1H)-yl)butan-1-one], for which the inhibition at 10 µM in experiment [1] was 84%; in experiment [2], 101%.

Turning to `COc1cc(C)c(S(=O)(=O)N2CCCCC2COCC(=O)N2CCn3cccc3C2c2cccs2)c(C)c1` (stereo not drawn) [(29), 2-((1-(4-methoxy-2,6-dimethylphenylsulfonyl)piperidin-2-yl)methoxy)-1-(1-(thiophen-2-yl)-3,4-dihydropyrrolo[1,2-a]pyrazin-2(1H)-yl)ethanone], the inhibition at 10 µM in experiment [1] was 102%; in experiment [2], 98%.

As for `COc1cc(C)c(S(=O)(=O)N2CCCCC2COCC(=O)N2CCn3c(CN(C)C)ccc3C2c2ccccc2)c(C)c1` (stereo not drawn) [(61), 1-(6-((dimethylamino)methyl)-1-phenyl-3,4-dihydropyrrolo[1,2-a]pyrazin-2(1H)-yl)-2-((1-(4-methoxy-2,6-dimethylphenylsulfonyl)piperidin-2-yl)methoxy)ethanone], the inhibition at 10 µM in experiment [1] worked out at 102%; in experiment [2] it was 101%.

As for `O=C(CC1CCCCN1S(=O)(=O)c1cccc(C(F)(F)F)c1)N1CCn2c(CCc3ccncc3)ccc2C1` (stereo not drawn) [(107), 1-(6-(2-(Pyridin-4-yl)ethyl)-3,4-dihydropyrrolo[1,2-a]pyrazin-2(1H)-yl)-2-(1-(3-(trifluoromethyl)phenylsulfonyl)piperidin-2-yl)ethanone], the inhibition at 10 µM was found to be 26% in experiment [1] and 75% in experiment [2].

As for `Cc1cc(C)c(S(=O)(=O)N2CCCCC2COCC(=O)N2CCn3c(CN(C)C)ccc3C2c2ccccc2)c(C)c1` (stereo not drawn) [(46), 1-(6-((dimethylamino)methyl)-1-phenyl-3,4-dihydropyrrolo[1,2-a]pyrazin-2(1H)-yl)-2-((1-(mesitylsulfonyl)piperidin-2-yl)methoxy)ethanone], the inhibition at 10 µM in experiment [1] and in experiment [2] was 102% in each case.

Consider `CCCC1c2cccn2CCN1C(=O)COCC1CCCCN1S(=O)(=O)c1c(C)cc(OC)cc1C` (stereo not drawn) [(71), 2-((1-(4-methoxy-2,6-dimethylphenylsulfonyl)piperidin-2-yl)methoxy)-1-(1-propyl-3,4-dihydropyrrolo[1,2-a]pyrazin-2(1H)-yl)ethanone], for which the values for the inhibition at 10 µM in experiment [1] and in experiment [2] were 103% and 102%, respectively.

Consider `CCC1c2ccc(CN(C)C)n2CCN1C(=O)COCC1CCCCN1S(=O)(=O)c1c(C)cc(OC)cc1C` (stereo not drawn) [(69), 1-(6-((dimethylamino)methyl)-1-ethyl-3,4-dihydropyrrolo[1,2-a]pyrazin-2(1H)-yl)-2-((1-(4-methoxy-2,6-dimethylphenylsulfonyl)piperidin-2-yl)methoxy)ethanone], for which the inhibition at 10 µM in experiment [1] is 104%; in experiment [2], 102%.

On to `O=C(CC1CCCCN1S(=O)(=O)c1cccc(C(F)(F)F)c1)N1CCn2c(CN3CCCC3)ccc2C1` (stereo not drawn) [(8), 1-(6-(pyrrolidin-1-ylmethyl)-3,4-dihydropyrrolo[1,2-a]pyrazin-2(1H)-yl)-2-(1-(3-(trifluoromethyl)phenylsulfonyl)piperidin-2-yl)ethanone], for which the inhibition at 10 µM in experiment [1] came out at 99%; in experiment [2], 96%.

For the molecule `COc1ccc(C2c3cccn3CCN2C(=O)COCC2CCCCN2S(=O)(=O)c2c(C)cc(OC)cc2C)cc1` (stereo not drawn) [(24), 2-((1-(4-methoxy-2,6-dimethylphenylsulfonyl)piperidin-2-yl)methoxy)-1-(1-(4-methoxyphenyl)-3,4-dihydropyrrolo[1,2-a]pyrazin-2(1H)-yl)ethanone], the inhibition at 10 µM in experiment [1] amounted to 101%; in experiment [2], 98%.

On to `CN1CCN(CCCc2ccc3n2CCN(C(=O)CC2CCCCN2S(=O)(=O)c2cccc(C(F)(F)F)c2)C3)CC1` (stereo not drawn) [(15), 1-(6-(3-(4-methylpiperazin-1-yl)propyl)-3,4-dihydropyrrolo[1,2-a]pyrazin-2(1H)-yl)-2-(1-(3-(trifluoromethyl)phenylsulfonyl)piperidin-2-yl)ethanone], for which the results for the inhibition at 10 µM in experiment [1] and in experiment [2] were 46% and 100%, respectively.

Consider `COc1cc(C)c(S(=O)(=O)N2CCCCC2COCC(=O)N2CCn3cccc3C2c2cccnc2)c(C)c1` (stereo not drawn) [(21), 2-((1-(4-methoxy-2,6-dimethylphenylsulfonyl)piperidin-2-yl)methoxy)-1-(1-(pyridin-3-yl)-3,4-dihydropyrrolo[1,2-a]pyrazin-2(1H)-yl)ethanone], for which the inhibition at 10 µM in experiment [1] was found to be 100%; in experiment [2], 98%.

Take `COc1cc(C)c(S(=O)(=O)N2CCCCC2COCC(=O)N2CCn3ncnc3C2)c(C)c1` (stereo not drawn) [(73), 1-(5,6-dihydro-[1,2,4]triazolo[1,5-a]pyrazin-7(8H)-yl)-2-((1-(4-methoxy-2,6-dimethylphenylsulfonyl)piperidin-2-yl)methoxy)ethanone]: the inhibition at 10 µM in experiment [1] amounted to 36%; in experiment [2], 102%.

Regarding `CCC1c2cccn2CCN1C(=O)COCC1CCCCN1S(=O)(=O)c1c(C)cc(C)cc1C` (stereo not drawn) [(55), 1-(1-ethyl-3,4-dihydropyrrolo[1,2-a]pyrazin-2(1H)-yl)-2-((1-(mesitylsulfonyl)piperidin-2-yl)methoxy)ethanone], the inhibition at 10 µM in experiment [1] came out at 98%; in experiment [2], 103%.

For the molecule `Cc1cc(S(=O)(=O)N2CCCCC2CCC(=O)N2CCn3c(CN4CCOCC4)ccc3C2)c(C)cc1Cl` (stereo not drawn) [(12), 3-(1-(4-chloro-2,5-dimethylphenylsulfonyl)piperidin-2-yl)-1-(6-(morpholino-methyl)-3,4-dihydropyrrolo[1,2-a]pyrazin-2(1H)-yl)propan-1-one], the inhibition at 10 µM in experiment [1] stood at 103%; in experiment [2] it was 57%.

Turning to `CCC1c2cccn2CCN1C(=O)CCC1CCCCN1S(=O)(=O)c1c(C)cc(OC)cc1C` (stereo not drawn) [(85), 1-(1-ethyl-3,4-dihydropyrrolo[1,2-a]pyrazin-2(1H)-yl)-3-(1-(4-methoxy-2,6-dimethylphenylsulfonyl)piperidin-2-yl)propan-1-one], the results for the inhibition at 10 µM in experiment [1] and in experiment [2] were 95% and 98%, respectively.

Regarding `Cc1cc(C)c(S(=O)(=O)N2CCCCC2COCC(=O)N2CCn3c(CN(C)C)ccc3C2CCc2ccccc2)c(C)c1` (stereo not drawn) [(51), 1-(6-((dimethylamino)methyl)-1-phenethyl-3,4-dihydropyrrolo[1,2-a]pyrazin-2(1H)-yl)-2-((1-(mesitylsulfonyl)piperidin-2-yl)methoxy)ethanone], the inhibition at 10 µM in experiment [1] and in experiment [2] was 101% each time.

As to `CN1CCN(Cc2ccc3n2CCN(C(=O)CC2CCCCN2S(=O)(=O)c2cccc(C(F)(F)F)c2)C3)CC1` (stereo not drawn) [(7), 1-(6-((4-methylpiperazin-1-yl)methyl)-3,4-dihydropyrrolo[1,2-a]pyrazin-2(1H)-yl)-2-(1-(3-(trifluoromethyl)phenylsulfonyl)piperidin-2-yl)ethanone], the inhibition at 10 µM is 87% in experiment [1] and 52% in experiment [2].

Turning to `COc1cc(C)c(S(=O)(=O)N2CCCCC2COCC(=O)N2CCn3c(CN(C)C)ccc3C2c2cccs2)c(C)c1` (stereo not drawn) [(68), 1-(6-((dimethylamino)methyl)-1-(thiophen-2-yl)-3,4-dihydropyrrolo[1,2-a]pyrazin-2(1H)-yl)-2-((1-(4-methoxy-2,6-dimethylphenylsulfonyl)piperidin-2-yl)methoxy)ethanone], the inhibition at 10 µM is 102% in experiment [1] and 103% in experiment [2].

`CCCCC1c2ccc(CN(C)C)n2CCN1C(=O)COCC1CCCCN1S(=O)(=O)c1c(C)cc(OC)cc1C` (stereo not drawn) [(67), 1-(1-butyl-6-((dimethylamino)methyl)-3,4-dihydropyrrolo[1,2-a]pyrazin-2(1H)-yl)-2-((1-(4-methoxy-2,6-dimethylphenylsulfonyl)piperidin-2-yl)methoxy)ethanone]: the inhibition at 10 µM in experiment [1] came to 102%; in experiment [2], 100%.

For the molecule `CCC1c2cccn2CCN1C(=O)COC[C@@H]1CCCCN1S(=O)(=O)c1c(C)cc(OC)cc1C` (stereo partly drawn) [(86), 1-(1-ethyl-3,4-dihydropyrrolo[1,2-a]pyrazin-2(1H)-yl)-2-(((S)-1-(4-methoxy-2,6-dimethylphenylsulfonyl)piperidin-2-yl)methoxy)ethanone], the inhibition at 10 µM in experiment [1] and in experiment [2] was 99% throughout.
